{
  "source": "PubChem BioAssay AID743486",
  "about": "(Broad Institute, 2014)",
  "system": "Mycobacterium tuberculosis starved, CFU imaging",
  "assay": "M. tuberculosis CFU reduction, CFU imaging, dry powder, dose response (AID 743486)",
  "note": "Active and inactive are the calls of the source. How the calls were made is not given here.",
  "data": [
    {"smiles": "Cn1c(NC(=O)c2ccccc2)nc2c3ncccc3ccc21", "values": [
      {"measurement": "AC90", "value": "> 64 µM (inactive)"}
    ]},
    {"smiles": "Cn1c(NC(=O)c2ccccc2)nc2c3ccncc3ccc21", "values": [
      {"measurement": "AC90", "value": "< 64", "unit": "µM"}
    ]},
    {"smiles": "Cn1c(NC(=O)c2ccccc2)nc2c3nccnc3ccc21", "values": [
      {"measurement": "AC90", "value": "> 64 µM (inactive)"}
    ]},
    {"smiles": "Cn1c(NC(=O)c2ccccc2)nc2c3cnccc3ccc21", "values": [
      {"measurement": "AC90", "value": "< 32", "unit": "µM"}
    ]}
  ]
}
